The values below come from patent US11066414B2, “Cot modulators and methods of use thereof” (Gilead Sciences, Inc., priority 2015, dated 2021).

Test [1] concerns the target Human Cot (Homo sapiens (Human), UniProt P41279). Kind of test: High Throughput Cot Biochemical Assay. The following applies: Cot HTRF (TR-FRET) biochemical assay. On the technique in general: Time-resolved FRET reads energy transfer from a long-lived donor to a nearby acceptor.
The subject of test [2] is TNFα. The test is described as follows: Cot Monocyte TNFα Cell Based Assay.
The mark [3] stands for this setting: Homo sapiens, Monocyte, read-out: EC50 TNF, LPS-stimulated human monocytes, TNFα.
The mark [4] stands for this setting: read-out: EC50 TNF, LPS-stimulated human monocytes, TNFα.

One may read the IC50 as the concentration needed to halve the response being measured. The term EC50 denotes the concentration at which the effect is half-maximal.

Read-outs that look alike come from different tables or passages of the source.

Chain of Human Cot (P41279 30-397): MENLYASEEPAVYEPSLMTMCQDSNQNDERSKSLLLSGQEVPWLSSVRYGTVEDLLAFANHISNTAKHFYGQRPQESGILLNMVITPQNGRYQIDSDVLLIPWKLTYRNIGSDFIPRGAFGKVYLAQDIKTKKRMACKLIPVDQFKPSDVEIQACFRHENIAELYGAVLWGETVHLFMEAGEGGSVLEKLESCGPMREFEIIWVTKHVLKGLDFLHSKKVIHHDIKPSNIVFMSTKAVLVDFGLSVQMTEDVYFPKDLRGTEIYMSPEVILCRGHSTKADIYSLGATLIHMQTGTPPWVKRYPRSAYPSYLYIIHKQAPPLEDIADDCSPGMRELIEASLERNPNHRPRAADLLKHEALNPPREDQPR

As to `CC(C)n1cc([C@@H](Nc2cc(Cl)c3ncc(C#N)c(Nc4ccc(F)c(Cl)c4)c3c2)c2cccnc2Cl)nn1` [Example 297, (S)-8-chloro-4-((3-chloro-4-fluoro-phenyl)amino)-6-(((2-chloropyridin-3-yl)(1-isopropyl-1H-1,2,3-triazol-4-yl)methyl)amino)quinoline-3-carbonitrile], in test [1] (IC50 HTRF), the midpoint of inhibition, the IC50, lay at 9 nM. Also, the half-maximal effective concentration (EC50) in test [2] (setting [3]) is 200 nM.

As for `CC(C)n1cc([C@@H](Nc2cc(Cl)c3ncc(C#N)c(Nc4ccc(F)c(Cl)c4)c3c2)c2cnco2)nn1` [Example 298, (R)-8-chloro-4-((3-chloro-4-fluoro-phenyl)amino)-6-(((1-isopropyl-1H-1,2,3-triazol-4-yl)(oxazol-5-yl)methyl)-amino)quinoline-3-carbonitrile], the IC50 in test [1] (IC50 HTRF) was 39 nM. Moreover, the half-maximal effective concentration (EC50) in test [2] (setting [3]) was determined as 1500 nM.

For the molecule `CC(C)(C)N1CCC(n2cc([C@@H](Nc3cc(Cl)c4ncc(C#N)c(Nc5ccc(F)c(Cl)c5)c4c3)c3cnco3)nn2)CC1` [Example 299, (R)-6-(((1-(1-(tert-butyl)piperidin-4-yl)-1H-1,2,3-triazol-4-yl)(oxazol-5-yl)methyl)amino)-8-chloro-4-((3-chloro-4-fluorophenyl)amino)quinoline-3-carbonitrile], in test [1] (IC50 HTRF), the 50% inhibitory concentration (IC50) turned out to be 18 nM. Moreover, in test [2] (setting [3]), the EC50 is 739 nM.

With `CC(C)(C)N1CCC(n2cc([C@@H](Nc3cc(Cl)c4ncc(C#N)c(Nc5ccc(F)c(Cl)c5)c4c3)c3csc(N4CCOCC4)n3)nn2)CC1` [Example 300], the IC50 in test [1] (read-out: IC50 HTRF) was found to be 7 nM. Further, in test [2] (setting [4]), the half-maximal effective concentration (EC50) was determined as 165 nM.

Turning to `N#Cc1cnc2c(Cl)cc(N[C@H](c3cn(C4COC4)nn3)c3csc(N4CCOCC4)n3)cc2c1Nc1ccc(F)c(Cl)c1` [Example 302, (S)-8-chloro-4-((3-chloro-4-fluoro-phenyl)amino)-6-(((2-morpholinothiazol-4-yl)(1-(oxetan-3-yl)-1H-1,2,3-triazol-4-yl)methyl)amino)quinoline-3-carbonitrile], in test [1] (IC50 HTRF), the IC50 amounted to 10 nM. In addition, the EC50 in test [2] (setting [3]) turned out to be 472 nM.

On to `CC(C)n1cc([C@@H](Nc2cc(Cl)c3ncc(C#N)c(Nc4ccc(F)c(Cl)c4)c3c2)c2ccnn2C)nn1` [Example 304, (S)-8-chloro-4-((3-chloro-4-fluorophenyl)amino)-6-(((1-isopropyl-1H-1,2,3-triazol-4-yl)(1-methyl-1H-pyrazol-5-yl)methyl)amino)quinoline-3-carbonitrile], for which, in test [1] (IC50 HTRF), the IC50 is 6 nM. Further, the half-maximal effective concentration (EC50) in test [2] (setting [3]) was determined as 234 nM.

Consider `Cn1nccc1[C@H](Nc1cc(Cl)c2ncc(C#N)c(Nc3ccc(F)c(Cl)c3)c2c1)c1cn(C2CCN(C(C)(C)C)CC2)nn1` [Example 305, (S)-6-(((1-(1-(tert-butyl)piperidin-4-yl)-1H-1,2,3-triazol-4-yl)(1-methyl-1H-pyrazol-5-yl)methyl)amino)-8-chloro-4-((3-chloro-4-fluorophenyl)amino)quinoline-3-carbonitrile], for which the midpoint of inhibition in test [1] (IC50 HTRF), the IC50, lay at 3 nM. Moreover, the EC50 in test [2] (setting [3]) worked out at 84 nM.

For the molecule `Cc1ncsc1[C@H](Nc1cc(Cl)c2ncc(C#N)c(Nc3ccc(F)c(Cl)c3)c2c1)c1cn(C(C)C)nn1` [Example 306, (R)-8-chloro-4-((3-chloro-4-fluorophenyl)amino)-6-(((1-isopropyl-1H-1,2,3-triazol-4-yl)(4-methylthiazol-5-yl)methyl)amino)quinoline-3-carbonitrile], the 50% inhibitory concentration (IC50) in test [1] (IC50 HTRF) is 6 nM. Moreover, the EC50 in test [2] (setting [3]) came out at 202 nM.

As to `Cc1ncsc1[C@H](Nc1cc(Cl)c2ncc(C#N)c(Nc3ccc(F)c(Cl)c3)c2c1)c1cn(C2CCN(C(C)(C)C)CC2)nn1` [Example 307, (R)-6-(((1-(1-(tert-butyl)piperidin-4-yl)-1H-1,2,3-triazol-4-yl)(4-methylthiazol-5-yl)methyl)amino)-8-chloro-4-((3-chloro-4-fluorophenyl)amino)quinoline-3-carbonitrile], in test [1] (IC50 HTRF), the IC50 was 4 nM. The EC50 in test [2] (setting [3]) came to 60 nM.

On to `N#Cc1cnc2c(Cl)cc(N[C@@H](c3cccnc3)c3c[nH]nn3)cc2c1Nc1ccc(F)c(Cl)c1` [Example 308, (S)-8-chloro-4-((3-chloro-4-fluorophenyl)amino)-6-((pyridin-3-yl(1H-1,2,3-triazol-4-yl)methyl)amino)-quinoline-3-carbonitrile], for which the midpoint of inhibition in test [1] (IC50 HTRF), the IC50, lay at 4 nM. Moreover, the EC50 in test [2] (setting [3]) is 286 nM.

Consider `CC1(C)CC(n2cc([C@@H](Nc3cc(Cl)c4ncc(C#N)c(Nc5ccc(F)c(Cl)c5)c4c3)c3cccnc3)nn2)CC(C)(C)N1` [Example 309], for which the IC50 in test [1] (read-out: IC50 HTRF) came to 8 nM. In test [2] (setting [4]), the half-maximal effective concentration (EC50) worked out at 181 nM.

On to `CC(C)(C)n1cc([C@@H](Nc2cc(Cl)c3ncc(C#N)c(Nc4ccc(F)c(Cl)c4)c3c2)c2cocn2)nn1` [Example 310, (S)-6-(((1-(tert-butyl)-1H-1,2,3-triazol-4-yl)(oxazol-4-yl)methyl)amino)-8-chloro-4-((3-chloro-4-fluorophenyl)amino)-quinoline-3-carbonitrile], for which the IC50 in test [1] (IC50 HTRF) worked out at 40 nM. Further, in test [2] (setting [3]), the EC50 stood at 2340 nM.

In the case of `CC(C)(C)N1CCC(n2cc([C@@H](Nc3cc(Cl)c4ncc(C#N)c(Nc5ccc(F)c(Cl)c5)c4c3)c3cccnc3Cl)nn2)CC1` [Example 315, (S)-6-(((1-(1-(tert-butyl)piperidin-4-yl)-1H-1,2,3-triazol-4-yl)(2-chloropyridin-3-yl)methyl)arnino)-8-chloro-4-((3-chloro-4-fluorophenyl)amino)quinoline-3-carbonitrile], the IC50 in test [1] (read-out: IC50 HTRF) was found to be 4 nM. Also, in test [2] (setting [4]), the EC50 is 132 nM.

`N#Cc1cnc2c(Cl)cc(N[C@@H](c3cscn3)c3cn(Cc4ccccn4)nn3)cc2c1Nc1ccc(F)c(Cl)c1` [Example 316, (S)-8-chloro-4-((3-chloro-4-fluorophenyl)amino)-6-(((1-(pyridin-2-ylmethyl)-1H-1,2,3-triazol-4-yl)(thiazol-4-yl)methyl)amino)quinoline-3-carbonitrile] registered an IC50 in test [1] (IC50 HTRF) of 6 nM. The EC50 in test [2] (setting [3]) stood at 298 nM.

As for `N#Cc1csc([C@H](Nc2cc(Cl)c3ncc(C#N)c(Nc4ccc(F)c(Cl)c4)c3c2)c2cn(Cc3ccccn3)nn2)c1` [Example 317, (R)-8-chloro-4-((3-chloro-4-fluorophenyl)amino)-6-(((4-cyano-thiophen-2-yl)(1-(pyridin-2-ylmethyl)-1H-1,2,3-triazol-4-yl)methyl)-amino)quinoline-3-carbonitrile], the IC50 in test [1] (IC50 HTRF) is 16 nM. The EC50 in test [2] (setting [3]) came out at 251 nM.

For the molecule `Cc1nc(Cl)ccc1[C@H](Nc1cc(Cl)c2ncc(C#N)c(Nc3ccc(F)c(Cl)c3)c2c1)c1cn(C2CCN(C(C)(C)C)CC2)nn1` [Example 318], the IC50 in test [1] (read-out: IC50 HTRF) is 8 nM. Besides, the EC50 in test [2] (setting [4]) turned out to be 271 nM.

In test [1] (IC50 HTRF), `N#Cc1cnc2c(Cl)cc(N[C@H](c3cn(C4COC4)nn3)c3cccnc3Cl)cc2c1Nc1ccc(F)c(Cl)c1` [Example 319, (S)-8-chloro-4-((3-chloro-4-fluorophenyl)amino)-6-(((2-chloropyridin-3-yl)(1-(oxetan-3-yl)-1H-1,2,3-triazol-4-yl)methyl)amino)-quinoline-3-carbonitrile] yielded an IC50 of 5 nM. Also, in test [2] (setting [3]), the EC50 is 165 nM.

For the molecule `Cc1nc(Cl)ccc1[C@H](Nc1cc(Cl)c2ncc(C#N)c(Nc3ccc(F)c(Cl)c3)c2c1)c1cn(C2COC2)nn1` [Example 321, (S)-8-chloro-6-(((6-chloro-2-methyl-pyridin-3-yl)(1-(oxetan-3-yl)-1H-1,2,3-triazol-4-yl)methyl)amino)-4-((3-chloro-4-fluorophenyl)amino)quinoline-3-carbonitrile], 10 nM corresponded to half-maximal inhibition in test [1] (IC50 HTRF) (IC50). Further, the EC50 in test [2] (setting [3]) amounted to 212 nM.

Molecule `N#Cc1cnc2c(Cl)cc(N[C@H](c3cn(C4COC4)nn3)c3ccc(Cl)nc3Cl)cc2c1Nc1ccc(F)c(Cl)c1` [Example 322, (S)-8-chloro-4-((3-chloro-4-fluorophenyl)amino)-6-(((2,6-dichloro-pyridin-3-yl)(1-(oxetan-3-yl)-1H-1,2,3-triazol-4-yl)methyl)amino)quinoline-3-carbonitrile] showed a half-inhibitory concentration (IC50) in test [1] (IC50 HTRF) of 33 nM. For the same molecule, the EC50 in test [2] (setting [3]) was found to be 369 nM.

`CC(C)(C)N1CCC(n2cc([C@@H](Nc3cc(Cl)c4ncc(C#N)c(Nc5ccc(F)c(Cl)c5)c4c3)c3ccc(Cl)nc3Cl)nn2)CC1` [Example 325, (S)-6-(((1-(1-(tert-butyl)piperidin-4-yl)-1H-1,2,3-triazol-4-yl)(2,6-dichloropyridin-3-yl)methyl)amino)-8-chloro-4-((3-chloro-4-fluorophenyl)-amino)quinoline-3-carbonitrile] gave a concentration for half-maximal inhibition (IC50) in test [1] (IC50 HTRF) of 20 nM. In addition, in test [2] (setting [3]), the half-maximal effective concentration (EC50) turned out to be 650 nM.

For the molecule `Cc1nc(Cl)ccc1[C@H](Nc1cc(Cl)c2ncc(C#N)c(Nc3ccc(F)c(Cl)c3)c2c1)c1cn(CCO)nn1` [Example 328, (S)-8-chloro-6-(((6-chloro-2-methylpyridin-3-yl)(1-(2-hydroxyethyl)-1H-1,2,3-triazol-4-yl)methyl)amino)-4-((3-chloro-4-fluorophenyl)amino)-quinoline-3-carbonitrile], in test [1] (IC50 HTRF), the midpoint of inhibition, the IC50, lay at 4 nM. In addition, the EC50 in test [2] (setting [3]) worked out at 272 nM.

In the case of `N#Cc1cnc2c(Cl)cc(N[C@H](c3cn(CCO)nn3)c3cccnc3Cl)cc2c1Nc1ccc(F)c(Cl)c1` [Example 331, (S)-8-chloro-4-((3-chloro-4-fluorophenyl)amino)-6-(((2-chloropyridin-3-yl)(1-(2-hydroxy-ethyl)-1H-1,2,3-triazol-4-yl)methyl)amino)quinoline-3-carbonitrile], it took 3 nM to reach half-maximal inhibition in test [1] (IC50 HTRF) (IC50). The EC50 in test [2] (setting [3]) stood at 173 nM.

Turning to `N#Cc1cnc2c(Cl)cc(N[C@@H](c3cccnc3)c3cn(CCN4CCCCC4)nn3)cc2c1Nc1ccc(F)c(Cl)c1` [Example 334, (S)-8-chloro-4-((3-chloro-4-fluorophenyl)amino)-6-(((1-(2-(piperidin-1-yl)ethyl)-1H-1,2,3-triazol-4-yl)(pyridin-3-yl)methyl)-amino)quinoline-3-carbonitrile], inhibition in test [1] (IC50 HTRF) was half-maximal at 4 nM (IC50). For the same molecule, the 50% effective concentration (EC50) in test [2] (setting [3]) stood at 82 nM.
